US4622319A, “Methods of using PAF-antagonistic diazepines” (Boehringer Ingelheim KG, priority 1984, dated 1986)

Test system: PAF-induced aggregation of human thrombocytes
Experiment: Inhibition of PAF-induced blood platelet aggregation in vitro
Assay type: cell-based
Settings: human thrombocyte-rich plasma, aggregation induced with PAF 5×10^-8 M, concentration giving 50% inhibition of aggregation, read-out: PAF-Antag. IC50
Method: 1. Inhibition of blood platelet aggregation in vitro
The PAF-induced aggregation of human thrombocytes in vitro is used to determine PAF-antagonistic activity. To obtain thrombocyte-rich plasma (TRP), blood is taken from an uncongested vein using a plastic syringe containing 3.8% sodium citrate solution. The ratio of sodium citrate solution to blood is 1:9. After careful mixing the citrate blood is centrifuged for 20 minutes at 150 g (1200 rpm). The thrombocyte aggregation is measured using the method devised by Born and Cross (G. V. R. Born and M. J. Cross, J. Physiol. 168, 178 (1963)), by adding an aggregation initiator (PAF) to the TRP with constant stirring.
The test substance is added 2 to 3 minutes before aggregation is initiated in a volume of 10 μl. Either distilled water, ethanol and/or dimethylsulphoxide (each in suitable concentrations) can be used as solvent.
Control mixtures contain corresponding volumes of these solvents. After the initial absorption has been recorded (2 to 3 minutes) aggregation is induced with PAF (5×10^-8 M).
The maximum of the first aggregation wave is used to assess the effects of the substance. The PAF-induced maximum absorption rate (=maximum aggregation×100%) is tested at the same time in a parallel mixture (=control mixture in one of the channels of the two-channel aggregometer) as each test mixture (second channel) and is used as a 100% value.
The aggregation value attained under the effect of the test substance is given as a percentage of the control value, i.e. less than 100% in the case of an inhibition of aggregation and over 100% in the case of an increase.
Each test substance is investigated at concentrations of from 10^-3 to 10^-8 M with a random sampling of n=4 with regard to an inhibitory effect on the PAF-induced thrombocyte aggregation. Then a concentration-activity curve is drawn up using 3 concentrations and the IC50 is determined (concentration giving a 50% inhibition of aggregation).

Row | SMILES | IC50 [µM]
1 | CN1C(=O)CC(=O)N(c2ccccc2)c2cc(C(F)(F)F)ccc21 [Compound 2, Triflubazam, reference compound] | 200
2 | CN1C(=O)CC(=O)N(c2ccccc2F)c2ccccc21 [Compound 7] | 96
3 | CN1CCC(=O)N(c2ccccc2)c2cc(Br)ccc21 [Compound 13] | > 1000
4 | CC1C(=O)Nc2ccc(Br)cc2N(c2ccccc2)C1=O (centres unmarked) [Compound 12] | 350
5 | CCN1CCC(=O)N(c2ccccc2)c2cnccc21 [Compound 15] | > 100
6 | O=C1CC(=O)N(c2ccccc2)c2cc(Br)ccc2N1 | 470
7 | CN1C(=O)CC(=O)N(c2ccccc2)c2cnccc21 [Compound 16] | > 50
8 | CCN1C(=O)CC(=O)N(c2ccccc2)c2cc(Cl)ccc21 [Compound 4] | 98
9 | CN1C(=O)CC(=O)N(c2ccccc2Cl)c2cc([N+](=O)[O-])ccc21 [Compound 10] | 310
10 | CCn1nc(C)c2c1N(c1ccccc1)C(=O)CC(=O)N2 [Compound 17] | > 100
11 | COc1ccccc1N1C(=O)CC(=O)N(C)c2ccc(Cl)cc21 [Compound 8] | 290
12 | CN1C(=O)CC(=O)N(c2ccccc2C(F)(F)F)c2cc(Cl)ccc21 [Compound 6] | 66
13 | CN1C(=O)CC(=O)N(c2ccccc2Cl)c2cc(Cl)ccc21 [Compound 5] | 220
14 | CN1C(=O)CC(=O)N(c2ccccc2)c2cc(Cl)ccc21 [Compound 1, Clobazam, reference compound] | 250
15 | O=C1CCN(CCO)c2ccc(Cl)cc2N1c1ccccc1 [Compound 14] | 285
16 | CN1C(=O)CC(=O)N(c2ccccn2)c2cc(Br)ccc21 [Compound 9] | > 1000
17 | CN1C(=O)CC(=O)N(c2ccccc2)c2ccc(Cl)cc21 [Compound 11] | 210
